Experimental data from PMC5563081, “Modulating Protein-Protein Interactions of the Mitotic Polo-like Kinases to Target Mutant KRAS” (Cell Chemical Biology, 2017).

Assays:
Experiment in all cases: DiscoverX KINOMEscan
Format in all cases: binding
Settings in all cases: read-out: % Control
NEK6 = biological target: T1, NEK6 (Homo sapiens, UniProt Q9HC98)
T1 construct: purchased DiscoverX KINOMEscan
Method: (§1) A panel of 55 proteins (comprising 51 human kinases structurally or functionally related to the PLKs, plus the kinase catalytic domains of PLK1, PLK2, PLK3 and PLK4) were selected for testing by DiscoverX using the KINOMEscan assay platform. Compounds were supplied as 40x DMSO stocks and were tested at a final concentration of 50μM for Poloppin and 5μM for Poloppin-II. Binding interactions were reported as percentage of control where lower numbers indicate stronger binding. A cut-off of <35% was applied to report significant binding.

TLK1 = biological target: T2, TLK1 (Homo sapiens, UniProt Q9UKI8)
T2 construct: purchased DiscoverX KINOMEscan
Method: as §1

PKMYT1 = biological target: T3, PKMYT1 (Homo sapiens, UniProt Q99640)
T3 construct: purchased DiscoverX KINOMEscan
Method: as §1

WNK4 = biological target: T4, WNK4 (Homo sapiens, UniProt Q96J92)
T4 construct: purchased DiscoverX KINOMEscan
Method: as §1

CHUK = biological target: T5, CHUK (Homo sapiens, UniProt O15111)
T5 construct: purchased DiscoverX KINOMEscan
Method: as §1

WEE2 = biological target: T6, WEE2 (Homo sapiens, UniProt P0C1S8)
T6 construct: purchased DiscoverX KINOMEscan
Method: as §1

AURKA = biological target: T7, AURKA (Homo sapiens, UniProt O14965)
T7 construct: purchased DiscoverX KINOMEscan
Method: as §1

[1] = biological target: T8, PLK2 kinase catalytic domain (Homo sapiens, UniProt Q9NYY3)
T8 construct: PLK2 kinase catalytic domain; purchased DiscoverX KINOMEscan
Method: as §1

TLK2 = biological target: T9, TLK2 (Homo sapiens, UniProt Q86UE8)
T9 construct: purchased DiscoverX KINOMEscan
Method: as §1

EIF2AK2 = biological target: T10, EIF2AK2 (Homo sapiens, UniProt P19525)
T10 construct: purchased DiscoverX KINOMEscan
Method: as §1

IKBKE = biological target: T11, IKBKE (Homo sapiens, UniProt Q14164)
T11 construct: purchased DiscoverX KINOMEscan
Method: as §1

STK35 = biological target: T12, STK35 (Homo sapiens, UniProt Q8TDR2)
T12 construct: purchased DiscoverX KINOMEscan
Method: as §1

TBK1 = biological target: T13, TBK1 (Homo sapiens, UniProt Q9UHD2)
T13 construct: purchased DiscoverX KINOMEscan
Method: as §1

EIF2AK1 = biological target: T14, EIF2AK1 (Homo sapiens, UniProt Q9BQI3)
T14 construct: purchased DiscoverX KINOMEscan
Method: as §1

GAK = biological target: T15, GAK (Homo sapiens, UniProt O14976)
T15 construct: purchased DiscoverX KINOMEscan
Method: as §1

[2] = biological target: T16, PLK3 kinase catalytic domain (Homo sapiens, UniProt Q9H4B4)
T16 construct: PLK3 kinase catalytic domain; purchased DiscoverX KINOMEscan
Method: as §1

CDK2 = biological target: T17, CDK2 (Homo sapiens, UniProt P24941)
T17 construct: purchased DiscoverX KINOMEscan
Method: as §1

STK16 = biological target: T18, STK16 (Homo sapiens, UniProt O75716)
T18 construct: purchased DiscoverX KINOMEscan
Method: as §1

CAMKK1 = biological target: T19, CAMKK1 (Homo sapiens, UniProt Q8N5S9)
T19 construct: purchased DiscoverX KINOMEscan
Method: as §1

BMP2K = biological target: T20, BMP2K (Homo sapiens, UniProt Q9NSY1)
T20 construct: purchased DiscoverX KINOMEscan
Method: as §1

ROCK2 = biological target: T21, ROCK2 (Homo sapiens, UniProt O75116)
T21 construct: purchased DiscoverX KINOMEscan
Method: as §1

DSTYK = biological target: T22, DSTYK (Homo sapiens, UniProt Q6XUX3)
T22 construct: purchased DiscoverX KINOMEscan
Method: as §1

NEK4 = biological target: T23, NEK4 (Homo sapiens, UniProt P51957)
T23 construct: purchased DiscoverX KINOMEscan
Method: as §1

NEK7 = biological target: T24, NEK7 (Homo sapiens, UniProt Q8TDX7)
T24 construct: purchased DiscoverX KINOMEscan
Method: as §1

NEK11 = biological target: T25, NEK11 (Homo sapiens, UniProt Q8NG66)
T25 construct: purchased DiscoverX KINOMEscan
Method: as §1

AURKB = biological target: T26, AURKB (Homo sapiens, UniProt Q96GD4)
T26 construct: purchased DiscoverX KINOMEscan
Method: as §1

NEK10 = biological target: T27, NEK10 (Homo sapiens, UniProt Q6ZWH5)
T27 construct: purchased DiscoverX KINOMEscan
Method: as §1

GSG2 = biological target: T28, GSG2 (Homo sapiens, UniProt Q8TF76)
T28 construct: purchased DiscoverX KINOMEscan
Method: as §1

CAMKK2 = biological target: T29, CAMKK2 (Homo sapiens, UniProt Q96RR4)
T29 construct: purchased DiscoverX KINOMEscan
Method: as §1

BUB1 = biological target: T30, BUB1 (Homo sapiens, UniProt O43683)
T30 construct: purchased DiscoverX KINOMEscan
Method: as §1

SBK1 = biological target: T31, SBK1 (Homo sapiens, UniProt Q52WX2)
T31 construct: purchased DiscoverX KINOMEscan
Method: as §1

WNK2 = biological target: T32, WNK2 (Homo sapiens, UniProt Q9Y3S1)
T32 construct: purchased DiscoverX KINOMEscan
Method: as §1

CSNK2A2 = biological target: T33, CSNK2A2 (Homo sapiens, UniProt P19784)
T33 construct: purchased DiscoverX KINOMEscan
Method: as §1

TTK = biological target: T34, TTK (Homo sapiens, UniProt P33981)
T34 construct: purchased DiscoverX KINOMEscan
Method: as §1

CSNK2A1 = biological target: T35, CSNK2A1 (Homo sapiens, UniProt P68400)
T35 construct: purchased DiscoverX KINOMEscan
Method: as §1

ULK3 = biological target: T36, ULK3 (Homo sapiens, UniProt Q6PHR2)
T36 construct: purchased DiscoverX KINOMEscan
Method: as §1

WEE1 = biological target: T37, WEE1 (Homo sapiens, UniProt P30291)
T37 construct: purchased DiscoverX KINOMEscan
Method: as §1

[3] = biological target: T38, PLK1 kinase catalytic domain (Homo sapiens, UniProt P53350)
T38 construct: PLK1 kinase catalytic domain; purchased DiscoverX KINOMEscan
Method: as §1

[4] = biological target: T39, PLK4 kinase catalytic domain (Homo sapiens, UniProt O00444)
T39 construct: PLK4 kinase catalytic domain; purchased DiscoverX KINOMEscan
Method: as §1

NEK9 = biological target: T40, NEK9 (Homo sapiens, UniProt Q8TD19)
T40 construct: purchased DiscoverX KINOMEscan
Method: as §1

ULK1 = biological target: T41, ULK1 (Homo sapiens, UniProt O75385)
T41 construct: purchased DiscoverX KINOMEscan
Method: as §1

T6 sequence (P0C1S8 whole entry): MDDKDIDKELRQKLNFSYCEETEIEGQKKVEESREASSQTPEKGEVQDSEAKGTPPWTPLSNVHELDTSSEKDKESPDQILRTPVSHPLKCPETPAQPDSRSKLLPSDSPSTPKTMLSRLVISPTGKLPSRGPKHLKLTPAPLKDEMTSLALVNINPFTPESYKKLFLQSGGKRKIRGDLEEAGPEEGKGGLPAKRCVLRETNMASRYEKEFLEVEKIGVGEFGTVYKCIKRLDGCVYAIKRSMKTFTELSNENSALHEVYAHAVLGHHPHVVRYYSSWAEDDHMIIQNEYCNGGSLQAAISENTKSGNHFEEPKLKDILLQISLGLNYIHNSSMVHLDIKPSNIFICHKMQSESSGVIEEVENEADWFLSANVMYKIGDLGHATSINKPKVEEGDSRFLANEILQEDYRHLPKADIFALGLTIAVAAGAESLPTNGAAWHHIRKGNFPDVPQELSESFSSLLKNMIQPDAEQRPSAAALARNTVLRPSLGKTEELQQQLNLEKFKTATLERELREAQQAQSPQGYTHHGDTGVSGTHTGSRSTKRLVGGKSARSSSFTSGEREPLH
T16 sequence (Q9H4B4 62-314 limits assumed): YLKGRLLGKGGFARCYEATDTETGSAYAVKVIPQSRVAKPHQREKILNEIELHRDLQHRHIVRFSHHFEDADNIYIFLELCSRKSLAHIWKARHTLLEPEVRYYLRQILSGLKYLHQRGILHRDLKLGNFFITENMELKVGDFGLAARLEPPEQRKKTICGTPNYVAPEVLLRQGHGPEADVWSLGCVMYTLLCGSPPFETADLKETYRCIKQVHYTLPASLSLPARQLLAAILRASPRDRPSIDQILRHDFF
T28 sequence (Q8TF76 whole entry): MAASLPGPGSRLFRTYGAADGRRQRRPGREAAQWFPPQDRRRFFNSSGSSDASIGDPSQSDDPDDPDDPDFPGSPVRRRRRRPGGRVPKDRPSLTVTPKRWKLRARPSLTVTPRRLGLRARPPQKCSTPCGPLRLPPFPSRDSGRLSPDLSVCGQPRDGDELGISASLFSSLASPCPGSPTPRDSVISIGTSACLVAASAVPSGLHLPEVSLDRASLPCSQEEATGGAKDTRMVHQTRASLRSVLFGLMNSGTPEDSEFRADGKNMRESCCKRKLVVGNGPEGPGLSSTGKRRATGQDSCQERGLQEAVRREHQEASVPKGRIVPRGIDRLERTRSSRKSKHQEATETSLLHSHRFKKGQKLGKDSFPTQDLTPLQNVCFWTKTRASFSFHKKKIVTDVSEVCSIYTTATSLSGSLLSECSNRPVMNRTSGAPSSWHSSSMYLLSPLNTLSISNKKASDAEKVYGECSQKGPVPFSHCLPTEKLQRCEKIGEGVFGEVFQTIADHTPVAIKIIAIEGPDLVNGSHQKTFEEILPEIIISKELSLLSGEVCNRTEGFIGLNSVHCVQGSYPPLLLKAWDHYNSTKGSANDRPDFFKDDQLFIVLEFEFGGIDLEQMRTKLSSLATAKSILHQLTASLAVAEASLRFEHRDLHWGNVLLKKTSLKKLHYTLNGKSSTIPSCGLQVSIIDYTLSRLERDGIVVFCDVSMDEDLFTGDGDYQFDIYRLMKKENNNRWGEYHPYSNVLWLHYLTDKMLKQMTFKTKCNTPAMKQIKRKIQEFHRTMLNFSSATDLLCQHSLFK
T24 sequence (Q8TDX7 whole entry): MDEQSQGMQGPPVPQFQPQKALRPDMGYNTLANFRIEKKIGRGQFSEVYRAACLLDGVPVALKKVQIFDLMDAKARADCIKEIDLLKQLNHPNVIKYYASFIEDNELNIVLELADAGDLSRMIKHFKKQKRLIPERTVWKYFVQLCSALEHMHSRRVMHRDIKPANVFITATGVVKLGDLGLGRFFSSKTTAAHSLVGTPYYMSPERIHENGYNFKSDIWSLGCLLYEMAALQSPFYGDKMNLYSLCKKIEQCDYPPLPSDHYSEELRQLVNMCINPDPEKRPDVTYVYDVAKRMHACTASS
T3 sequence (Q99640 whole entry): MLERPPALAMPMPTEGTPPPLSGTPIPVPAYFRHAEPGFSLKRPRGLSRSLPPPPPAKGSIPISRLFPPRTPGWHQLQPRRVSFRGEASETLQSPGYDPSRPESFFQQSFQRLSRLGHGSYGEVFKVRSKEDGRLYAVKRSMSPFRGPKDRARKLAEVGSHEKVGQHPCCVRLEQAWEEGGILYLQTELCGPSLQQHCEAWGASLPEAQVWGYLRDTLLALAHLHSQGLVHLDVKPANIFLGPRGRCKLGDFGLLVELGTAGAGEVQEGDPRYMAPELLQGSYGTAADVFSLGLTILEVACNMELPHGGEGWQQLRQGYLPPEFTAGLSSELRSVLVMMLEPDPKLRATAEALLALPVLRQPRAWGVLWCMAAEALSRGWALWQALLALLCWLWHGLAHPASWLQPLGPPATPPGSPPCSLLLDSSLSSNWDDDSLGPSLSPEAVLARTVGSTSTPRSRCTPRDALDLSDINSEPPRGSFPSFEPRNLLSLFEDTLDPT
T33 sequence (P19784 whole entry): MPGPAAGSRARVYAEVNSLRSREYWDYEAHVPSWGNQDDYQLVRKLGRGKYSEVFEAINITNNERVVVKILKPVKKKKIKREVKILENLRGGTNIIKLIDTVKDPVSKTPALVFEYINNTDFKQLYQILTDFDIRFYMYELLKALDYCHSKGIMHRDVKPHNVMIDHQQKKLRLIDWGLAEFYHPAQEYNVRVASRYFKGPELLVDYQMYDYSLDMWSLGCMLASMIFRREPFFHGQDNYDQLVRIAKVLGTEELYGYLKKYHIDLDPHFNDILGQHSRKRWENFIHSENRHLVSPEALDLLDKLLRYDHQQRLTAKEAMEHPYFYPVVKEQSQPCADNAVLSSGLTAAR
T5 sequence (O15111 whole entry): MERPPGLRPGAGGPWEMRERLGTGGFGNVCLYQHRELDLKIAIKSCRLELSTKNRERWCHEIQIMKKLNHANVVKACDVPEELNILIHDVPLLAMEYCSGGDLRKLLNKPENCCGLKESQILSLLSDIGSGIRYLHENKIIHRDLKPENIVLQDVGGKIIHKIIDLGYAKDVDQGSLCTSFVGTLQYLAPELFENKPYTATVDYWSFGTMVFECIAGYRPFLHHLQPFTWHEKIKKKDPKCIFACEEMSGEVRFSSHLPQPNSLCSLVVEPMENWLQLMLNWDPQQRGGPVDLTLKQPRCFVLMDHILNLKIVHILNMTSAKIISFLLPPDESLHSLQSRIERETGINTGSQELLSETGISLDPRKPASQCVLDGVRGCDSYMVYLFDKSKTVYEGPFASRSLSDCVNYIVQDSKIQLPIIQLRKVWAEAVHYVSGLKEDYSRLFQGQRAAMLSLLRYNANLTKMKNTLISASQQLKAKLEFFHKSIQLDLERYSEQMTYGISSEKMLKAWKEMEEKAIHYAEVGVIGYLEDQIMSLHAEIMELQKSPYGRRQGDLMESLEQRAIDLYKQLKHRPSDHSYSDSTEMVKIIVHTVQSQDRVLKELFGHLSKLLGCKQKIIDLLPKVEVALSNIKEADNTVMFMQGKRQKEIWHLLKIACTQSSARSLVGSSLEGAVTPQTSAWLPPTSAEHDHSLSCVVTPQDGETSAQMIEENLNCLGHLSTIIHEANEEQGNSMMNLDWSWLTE
T29 sequence (Q96RR4 whole entry): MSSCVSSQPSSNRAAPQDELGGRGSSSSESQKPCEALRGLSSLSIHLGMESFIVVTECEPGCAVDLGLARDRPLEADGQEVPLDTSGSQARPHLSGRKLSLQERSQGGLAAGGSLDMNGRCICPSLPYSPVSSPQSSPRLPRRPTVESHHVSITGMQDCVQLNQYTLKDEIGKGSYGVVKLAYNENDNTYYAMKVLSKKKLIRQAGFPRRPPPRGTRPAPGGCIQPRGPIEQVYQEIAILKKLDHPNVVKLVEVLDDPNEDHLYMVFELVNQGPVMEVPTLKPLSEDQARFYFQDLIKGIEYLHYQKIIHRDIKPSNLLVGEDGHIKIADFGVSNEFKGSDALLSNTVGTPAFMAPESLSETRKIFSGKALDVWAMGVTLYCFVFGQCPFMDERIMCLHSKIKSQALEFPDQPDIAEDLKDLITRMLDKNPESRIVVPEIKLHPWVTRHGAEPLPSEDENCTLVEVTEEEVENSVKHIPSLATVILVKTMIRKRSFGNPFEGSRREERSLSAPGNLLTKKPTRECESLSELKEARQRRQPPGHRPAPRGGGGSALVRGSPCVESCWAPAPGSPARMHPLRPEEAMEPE
T8 sequence (Q9NYY3 82-334 limits assumed): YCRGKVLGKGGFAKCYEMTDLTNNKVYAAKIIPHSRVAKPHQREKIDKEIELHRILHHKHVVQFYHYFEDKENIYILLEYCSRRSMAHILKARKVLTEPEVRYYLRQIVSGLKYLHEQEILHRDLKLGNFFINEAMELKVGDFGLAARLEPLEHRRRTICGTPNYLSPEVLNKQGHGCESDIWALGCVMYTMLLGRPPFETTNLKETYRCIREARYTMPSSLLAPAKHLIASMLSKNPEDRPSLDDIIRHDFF
T1 sequence (Q9HC98 whole entry): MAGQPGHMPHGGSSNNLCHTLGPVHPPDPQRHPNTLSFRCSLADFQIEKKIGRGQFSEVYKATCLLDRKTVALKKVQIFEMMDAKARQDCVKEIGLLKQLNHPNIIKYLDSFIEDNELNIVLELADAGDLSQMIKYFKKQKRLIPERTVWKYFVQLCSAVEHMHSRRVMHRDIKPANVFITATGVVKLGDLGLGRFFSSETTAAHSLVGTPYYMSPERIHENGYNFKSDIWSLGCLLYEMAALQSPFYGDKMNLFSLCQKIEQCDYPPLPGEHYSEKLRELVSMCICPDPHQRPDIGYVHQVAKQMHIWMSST
T18 sequence (O75716 whole entry): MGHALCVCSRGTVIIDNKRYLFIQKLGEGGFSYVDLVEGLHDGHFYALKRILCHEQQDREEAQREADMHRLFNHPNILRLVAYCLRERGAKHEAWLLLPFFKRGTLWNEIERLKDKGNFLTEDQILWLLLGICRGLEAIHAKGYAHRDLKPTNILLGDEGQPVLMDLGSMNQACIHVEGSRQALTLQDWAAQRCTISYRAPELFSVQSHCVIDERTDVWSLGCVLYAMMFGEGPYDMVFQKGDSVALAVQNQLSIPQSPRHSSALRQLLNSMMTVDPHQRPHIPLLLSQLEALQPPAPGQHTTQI

## CN(C)CCNC(=O)c1ccc(-c2ccc(-c3ccc(Cl)cc3)n2-c2ccccc2C(F)(F)F)cc1 [Poloppin-II]
NEK6; NEK6, Poloppin-II 5µM, hit <35%
  remaining binding at 5 µM: 99%
TLK1; TLK1, Poloppin-II 5µM, hit <35%
  remaining binding at 5 µM: 99%
PKMYT1; PKMYT1, Poloppin-II 5µM, hit <35%
  remaining binding at 5 µM: 100%
WNK4; WNK4, Poloppin-II 5µM, hit <35%
  remaining binding at 5 µM: 91%
CHUK; CHUK, Poloppin-II 5µM, hit <35%
  remaining binding at 5 µM: 100%
WEE2; WEE2, Poloppin-II 5µM, hit <35%
  remaining binding at 5 µM: 92%
AURKA; AURKA, Poloppin-II 5µM, hit <35%
  remaining binding at 5 µM: 83%
[1]; PLK2, Poloppin-II 5µM, hit <35%
  remaining binding at 5 µM: 85%
TLK2; TLK2, Poloppin-II 5µM, hit <35%
  remaining binding at 5 µM: 94%
EIF2AK2; EIF2AK2, Poloppin-II 5µM, hit <35%
  remaining binding at 5 µM: 90%
IKBKE; IKBKE, Poloppin-II 5µM, hit <35%
  remaining binding at 5 µM: 75%
STK35; STK35, Poloppin-II 5µM, hit <35%
  remaining binding at 5 µM: 71%
TBK1; TBK1, Poloppin-II 5µM, hit <35%
  remaining binding at 5 µM: 80%
EIF2AK1; EIF2AK1, Poloppin-II 5µM, hit <35%
  remaining binding at 5 µM: 98%
GAK; GAK, Poloppin-II 5µM, hit <35%
  remaining binding at 5 µM: 100%
[2]; PLK3, Poloppin-II 5µM, hit <35%
  remaining binding at 5 µM: 74%
CDK2; CDK2, Poloppin-II 5µM, hit <35%
  remaining binding at 5 µM: 89%
STK16; STK16, Poloppin-II 5µM, hit <35%
  remaining binding at 5 µM: 92%
CAMKK1; CAMKK1, Poloppin-II 5µM, hit <35%
  remaining binding at 5 µM: 91%
BMP2K; BMP2K, Poloppin-II 5µM, hit <35%
  remaining binding at 5 µM: 85%
ROCK2; ROCK2, Poloppin-II 5µM, hit <35%
  remaining binding at 5 µM: 100%
DSTYK; DSTYK, Poloppin-II 5µM, hit <35%
  remaining binding at 5 µM: 75%
NEK4; NEK4, Poloppin-II 5µM, hit <35%
  remaining binding at 5 µM: 100%
NEK7; NEK7, Poloppin-II 5µM, hit <35%
  remaining binding at 5 µM: 79%
NEK11; NEK11, Poloppin-II 5µM, hit <35%
  remaining binding at 5 µM: 100%
AURKB; AURKB, Poloppin-II 5µM, hit <35%
  remaining binding at 5 µM: 95%
NEK10; NEK10, Poloppin-II 5µM, hit <35%
  remaining binding at 5 µM: 94%
GSG2; GSG2, Poloppin-II 5µM, hit <35%
  remaining binding at 5 µM: 77%
CAMKK2; CAMKK2, Poloppin-II 5µM, hit <35%
  remaining binding at 5 µM: 97%
BUB1; BUB1, Poloppin-II 5µM, hit <35%
  remaining binding at 5 µM: 90%
SBK1; SBK1, Poloppin-II 5µM, hit <35%
  remaining binding at 5 µM: 61%
WNK2; WNK2, Poloppin-II 5µM, hit <35%
  remaining binding at 5 µM: 100%
CSNK2A2; CSNK2A2, Poloppin-II 5µM, hit <35%
  remaining binding at 5 µM: 92%
TTK; TTK, Poloppin-II 5µM, hit <35%
  remaining binding at 5 µM: 83%
CSNK2A1; CSNK2A1, Poloppin-II 5µM, hit <35%
  remaining binding at 5 µM: 96%
ULK3; ULK3, Poloppin-II 5µM, hit <35%
  remaining binding at 5 µM: 88%
WEE1; WEE1, Poloppin-II 5µM, hit <35%
  remaining binding at 5 µM: 98%
[3]; PLK1, Poloppin-II 5µM, hit <35%
  remaining binding at 5 µM: 100%
[4]; PLK4, Poloppin-II 5µM, hit <35%
  remaining binding at 5 µM: 90%
NEK9; NEK9, Poloppin-II 5µM, hit <35%
  remaining binding at 5 µM: 92%
ULK1; ULK1, Poloppin-II 5µM, hit <35%
  remaining binding at 5 µM: 84%

## O=C(O)CCc1ccc(-c2ccc(Br)cc2)n1-c1ccccc1C(F)(F)F [Poloppin]
NEK6
  remaining binding at 50 µM: 96%
TLK1
  remaining binding at 50 µM: 100%
PKMYT1
  remaining binding at 50 µM: 98%
WNK4
  remaining binding at 50 µM: 100%
CHUK
  remaining binding at 50 µM: 100%
WEE2
  remaining binding at 50 µM: 86%
AURKA
  remaining binding at 50 µM: 81%
[1]
  remaining binding at 50 µM: 78%
TLK2
  remaining binding at 50 µM: 90%
EIF2AK2
  remaining binding at 50 µM: 69%
IKBKE
  remaining binding at 50 µM: 55%
STK35
  remaining binding at 50 µM: 100%
TBK1
  remaining binding at 50 µM: 75%
EIF2AK1
  remaining binding at 50 µM: 97%
GAK
  remaining binding at 50 µM: 100%
[2]
  remaining binding at 50 µM: 83%
CDK2
  remaining binding at 50 µM: 84%
STK16
  remaining binding at 50 µM: 81%
CAMKK1
  remaining binding at 50 µM: 77%
BMP2K
  remaining binding at 50 µM: 68%
ROCK2
  remaining binding at 50 µM: 100%
DSTYK
  remaining binding at 50 µM: 49%
NEK4
  remaining binding at 50 µM: 100%
NEK7
  remaining binding at 50 µM: 68%
NEK11
  remaining binding at 50 µM: 100%
AURKB
  remaining binding at 50 µM: 87%
NEK10
  remaining binding at 50 µM: 98%
GSG2
  remaining binding at 50 µM: 100%
CAMKK2
  remaining binding at 50 µM: 82%
BUB1
  remaining binding at 50 µM: 99%
SBK1
  remaining binding at 50 µM: 61%
WNK2
  remaining binding at 50 µM: 100%
CSNK2A2
  remaining binding at 50 µM: 84%
TTK
  remaining binding at 50 µM: 85%
CSNK2A1
  remaining binding at 50 µM: 87%
ULK3
  remaining binding at 50 µM: 94%
WEE1
  remaining binding at 50 µM: 99%
[3]
  remaining binding at 50 µM: 100%
[4]
  remaining binding at 50 µM: 88%
NEK9
  remaining binding at 50 µM: 95%
ULK1
  remaining binding at 50 µM: 84%
